Assay results taken from patent publication US6472348B1, “Pyridone derivatives and herbicides” (Kumiai Chemical Industry Co., Ltd., priority 1996, dated 2002).

system: barnyardgrass (Ec); assay: Test Example 1: herbicidal effects by paddy field soil treatment; type: in vivo; details: 100 g of the active ingredient per 10 ares, 21st day after the application, index 0-5 of Table 47;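 note: grade of growth control; 5 = at least 90%; 4 = 70 to 90%; 3 = 50 to 70%; 2 = 30 to 50%; 1 = 10 to 30%; 0 = under 10%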
Experimental: (§1) (Test on Herbicidal Effects by Paddy Field Soil Treatment)
(§2) In a plastic pot (surface area: 100 cm^2) filled with paddy field soil, barnyardgrass (Ec), monochoria (Mo) and bulrush (Sc) were sown after puddling and leveling, and flooded to a water depth of 3 cm. […] The dose was 100 g of the active ingredient per 10 ares. The plants were then cultured in a green house, and the evaluation of the herbicidal effects was conducted on the 21st day after the application in accordance with the standards as identified in Table 47.

Row | Compound | Herbicidal effects Ec
1 | CC(C)Oc1cc(-c2ccc(C(F)(F)F)n(C)c2=O)c(Cl)cc1Cl [1-29] | 5
2 | CCCCOC(=O)COc1cc(-c2ccc(C(F)(F)F)n(C)c2=O)c(F)cc1Cl [1-148] | 5
3 | CC=CCN1C(=O)COc2cc(F)c(-c3ccc(C(F)(F)F)n(C)c3=O)cc21 [Compound 2-12] | 5
4 | C#CCSc1cc(-c2ccc(C(F)(F)F)n(C)c2=O)ccc1Cl [1-112] | 5
5 | CNS(=O)(=O)c1cc(-c2ccc(C(F)(F)F)n(C)c2=O)ccc1Cl [Compound 1-257] | 5

system: bulrush (Sc); assay: as above; type: in vivo; details: 100 g of the active ingredient per 10 ares, 21st day after the application, index 0-5 of Table 47;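 note: grade of growth control; 5 = at least 90%; 4 = 70 to 90%; 3 = 50 to 70%; 2 = 30 to 50%; 1 = 10 to 30%; 0 = under 10%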
Experimental: as §1, §2

Row | Compound | Herbicidal effects Sc
6 | CC(C)Oc1cc(-c2ccc(C(F)(F)F)n(C)c2=O)c(Cl)cc1Cl [1-29] | 5
7 | CCCCOC(=O)COc1cc(-c2ccc(C(F)(F)F)n(C)c2=O)c(F)cc1Cl [1-148] | 5
8 | CC=CCN1C(=O)COc2cc(F)c(-c3ccc(C(F)(F)F)n(C)c3=O)cc21 [Compound 2-12] | 5
9 | C#CCSc1cc(-c2ccc(C(F)(F)F)n(C)c2=O)ccc1Cl [1-112] | 5
10 | CNS(=O)(=O)c1cc(-c2ccc(C(F)(F)F)n(C)c2=O)ccc1Cl [Compound 1-257] | 5

system: monochoria (Mo); assay: as above; type: in vivo; details: 100 g of the active ingredient per 10 ares, 21st day after the application, index 0-5 of Table 47;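 note: grade of growth control; 5 = at least 90%; 4 = 70 to 90%; 3 = 50 to 70%; 2 = 30 to 50%; 1 = 10 to 30%; 0 = under 10%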
Experimental: as §1, §2

Row | Compound | Herbicidal effects Mo
11 | CC(C)Oc1cc(-c2ccc(C(F)(F)F)n(C)c2=O)c(Cl)cc1Cl [1-29] | 5
12 | CCCCOC(=O)COc1cc(-c2ccc(C(F)(F)F)n(C)c2=O)c(F)cc1Cl [1-148] | 5
13 | CC=CCN1C(=O)COc2cc(F)c(-c3ccc(C(F)(F)F)n(C)c3=O)cc21 [Compound 2-12] | 5
14 | C#CCSc1cc(-c2ccc(C(F)(F)F)n(C)c2=O)ccc1Cl [1-112] | 5
15 | CNS(=O)(=O)c1cc(-c2ccc(C(F)(F)F)n(C)c2=O)ccc1Cl [Compound 1-257] | 5

system: Digitaria ciliaris (Di); assay: Test Example 2: herbicidal effects by upland field soil treatment; type: in vivo; details: 100 g of the active ingredient per 10 ares, 21st day after the application, index 0-5 of Table 47;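 note: grade of growth control; 5 = at least 90%; 4 = 70 to 90%; 3 = 50 to 70%; 2 = 30 to 50%; 1 = 10 to 30%; 0 = under 10%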
Description: (§3) (Test on Herbicidal Effects by Upland Field Soil Treatment)

Row | Compound | Herbicidal effects Di
16 | CC(C)Oc1cc(-c2ccc(C(F)(F)F)n(C)c2=O)c(Cl)cc1Cl [1-29] | 5
17 | CCCCOC(=O)COc1cc(-c2ccc(C(F)(F)F)n(C)c2=O)c(F)cc1Cl [1-148] | 5
18 | C#CCSc1cc(-c2ccc(C(F)(F)F)n(C)c2=O)ccc1Cl [1-112] | 5

same assay, conditions: 100 g of the active ingredient per 10 ares, evaluated on the 21st day after application

Row | Compound | Herbicidal effects Di
19 | CC=CCN1C(=O)COc2cc(F)c(-c3ccc(C(F)(F)F)n(C)c3=O)cc21 [Compound 2-12] | 5
20 | CNS(=O)(=O)c1cc(-c2ccc(C(F)(F)F)n(C)c2=O)ccc1Cl [Compound 1-257] | 5

system: barnyardgrass (Ec); assay: as above; type: in vivo; details: 100 g of the active ingredient per 10 ares, 21st day after the application, index 0-5 of Table 47
Description: as §3

Row | Compound | Herbicidal effects Ec
21 | CC(C)Oc1cc(-c2ccc(C(F)(F)F)n(C)c2=O)c(Cl)cc1Cl [1-29] | 5
22 | CCCCOC(=O)COc1cc(-c2ccc(C(F)(F)F)n(C)c2=O)c(F)cc1Cl [1-148] | 5
23 | C#CCSc1cc(-c2ccc(C(F)(F)F)n(C)c2=O)ccc1Cl [1-112] | 5

same assay, conditions: 100 g of the active ingredient per 10 ares, evaluated on the 21st day after application

Row | Compound | Herbicidal effects Ec
24 | CC=CCN1C(=O)COc2cc(F)c(-c3ccc(C(F)(F)F)n(C)c3=O)cc21 [Compound 2-12] | 5
25 | CNS(=O)(=O)c1cc(-c2ccc(C(F)(F)F)n(C)c2=O)ccc1Cl [Compound 1-257] | 5

system: common lambsquarters (Ch); assay: as above; type: in vivo; details: 100 g of the active ingredient per 10 ares, 21st day after the application, index 0-5 of Table 47
Description: as §3

Row | Compound | Herbicidal effects Ch
26 | CC(C)Oc1cc(-c2ccc(C(F)(F)F)n(C)c2=O)c(Cl)cc1Cl [1-29] | 5
27 | CCCCOC(=O)COc1cc(-c2ccc(C(F)(F)F)n(C)c2=O)c(F)cc1Cl [1-148] | 5
28 | C#CCSc1cc(-c2ccc(C(F)(F)F)n(C)c2=O)ccc1Cl [1-112] | 5

same assay, conditions: 100 g of the active ingredient per 10 ares, evaluated on the 21st day after application

Row | Compound | Herbicidal effects Ch
29 | CC=CCN1C(=O)COc2cc(F)c(-c3ccc(C(F)(F)F)n(C)c3=O)cc21 [Compound 2-12] | 5
30 | CNS(=O)(=O)c1cc(-c2ccc(C(F)(F)F)n(C)c2=O)ccc1Cl [Compound 1-257] | 5

system: pale smartweed (Po); assay: as above; type: in vivo; details: 100 g of the active ingredient per 10 ares, 21st day after the application, index 0-5 of Table 47
Description: as §3

Row | Compound | Herbicidal effects Po
31 | CC(C)Oc1cc(-c2ccc(C(F)(F)F)n(C)c2=O)c(Cl)cc1Cl [1-29] | 5
32 | CCCCOC(=O)COc1cc(-c2ccc(C(F)(F)F)n(C)c2=O)c(F)cc1Cl [1-148] | 5
33 | C#CCSc1cc(-c2ccc(C(F)(F)F)n(C)c2=O)ccc1Cl [1-112] | 5

same assay, conditions: 100 g of the active ingredient per 10 ares, evaluated on the 21st day after application

Row | Compound | Herbicidal effects Po
34 | CC=CCN1C(=O)COc2cc(F)c(-c3ccc(C(F)(F)F)n(C)c3=O)cc21 [Compound 2-12] | 5
35 | CNS(=O)(=O)c1cc(-c2ccc(C(F)(F)F)n(C)c2=O)ccc1Cl [Compound 1-257] | 5

system: rice flatsedge (Ci); assay: as above; type: in vivo; details: 100 g of the active ingredient per 10 ares, 21st day after the application, index 0-5 of Table 47
Description: as §3

Row | Compound | Herbicidal effects Ci
36 | CC(C)Oc1cc(-c2ccc(C(F)(F)F)n(C)c2=O)c(Cl)cc1Cl [1-29] | 5
37 | CCCCOC(=O)COc1cc(-c2ccc(C(F)(F)F)n(C)c2=O)c(F)cc1Cl [1-148] | 5
38 | C#CCSc1cc(-c2ccc(C(F)(F)F)n(C)c2=O)ccc1Cl [1-112] | 5

same assay, conditions: 100 g of the active ingredient per 10 ares, evaluated on the 21st day after application

Row | Compound | Herbicidal effects Ci
39 | CC=CCN1C(=O)COc2cc(F)c(-c3ccc(C(F)(F)F)n(C)c3=O)cc21 [Compound 2-12] | 5
40 | CNS(=O)(=O)c1cc(-c2ccc(C(F)(F)F)n(C)c2=O)ccc1Cl [Compound 1-257] | 5

system: slender amaranth (Am); assay: as above; type: in vivo; details: 100 g of the active ingredient per 10 ares, 21st day after the application, index 0-5 of Table 47
Description: as §3

Row | Compound | Herbicidal effects Am
41 | CC(C)Oc1cc(-c2ccc(C(F)(F)F)n(C)c2=O)c(Cl)cc1Cl [1-29] | 5
42 | CCCCOC(=O)COc1cc(-c2ccc(C(F)(F)F)n(C)c2=O)c(F)cc1Cl [1-148] | 5
43 | C#CCSc1cc(-c2ccc(C(F)(F)F)n(C)c2=O)ccc1Cl [1-112] | 5

same assay, conditions: 100 g of the active ingredient per 10 ares, evaluated on the 21st day after application

Row | Compound | Herbicidal effects Am
44 | CC=CCN1C(=O)COc2cc(F)c(-c3ccc(C(F)(F)F)n(C)c3=O)cc21 [Compound 2-12] | 5
45 | CNS(=O)(=O)c1cc(-c2ccc(C(F)(F)F)n(C)c2=O)ccc1Cl [Compound 1-257] | 5

system: Diaitaria ciliaris (Di); assay: Test Example 3: herbicidal effects by upland field foliage treatment; type: in vivo; design: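 grade of growth control; 5 = at least 90%; 4 = 70 to 90%; 3 = 50 to 70%; 2 = 30 to 50%; 1 = 10 to 30%; 0 = under 10%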; details: 100 g active ingredient per 10 ares, evaluated 14th day after treatment
Experimental: (§4) (Test on Herbicidal Effects by Upland Field Foliage Treatment)
(§5) In a plastic pot (surface area: 120 cm^2) filled with sand, barnyardgrass (Ec), Diaitaria ciliaris (Di), pale smartweed (Po), slender amaranth (Am), common lambsquarters (Ch) and rice flatsedge (Ci) were sown and covered with soil and were cultured in a green house for 2 weeks. […] The plants were then cultured in the green house, and the evaluation of the herbicidal effects was conducted on the 14th day after the treatment in accordance with the standards as identified in Table 47. Symbol—represents “not tested”.

Row | Compound | Herbicidal effects Di
46 | CC=CCN1C(=O)COc2cc(F)c(-c3ccc(C(F)(F)F)n(C)c3=O)cc21 [Compound 2-12] | 5

same assay, conditions: 100 g of the active ingredient per 10 ares, evaluated on the 14th day after treatment

Row | Compound | Herbicidal effects Di
47 | CC(C)Oc1cc(-c2ccc(C(F)(F)F)n(C)c2=O)c(Cl)cc1Cl [1-29] | 5
48 | CCCCOC(=O)COc1cc(-c2ccc(C(F)(F)F)n(C)c2=O)c(F)cc1Cl [1-148] | 5

system: barnyardgrass (Ec); assay: as above; type: in vivo; design: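 grade of growth control; 5 = at least 90%; 4 = 70 to 90%; 3 = 50 to 70%; 2 = 30 to 50%; 1 = 10 to 30%; 0 = under 10%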; details: 100 g active ingredient per 10 ares, evaluated 14th day after treatment
Experimental: as §4, §5

Row | Compound | Herbicidal effects Ec
49 | CC=CCN1C(=O)COc2cc(F)c(-c3ccc(C(F)(F)F)n(C)c3=O)cc21 [Compound 2-12] | 5

same assay, conditions: 100 g of the active ingredient per 10 ares, evaluated on the 14th day after treatment

Row | Compound | Herbicidal effects Ec
50 | CC(C)Oc1cc(-c2ccc(C(F)(F)F)n(C)c2=O)c(Cl)cc1Cl [1-29] | 5
51 | CCCCOC(=O)COc1cc(-c2ccc(C(F)(F)F)n(C)c2=O)c(F)cc1Cl [1-148] | 5

system: common lambsquarters (Ch); assay: as above; type: in vivo; design: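 grade of growth control; 5 = at least 90%; 4 = 70 to 90%; 3 = 50 to 70%; 2 = 30 to 50%; 1 = 10 to 30%; 0 = under 10%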; details: 100 g active ingredient per 10 ares, evaluated 14th day after treatment
Experimental: as §4, §5

Row | Compound | Herbicidal effects Ch
52 | CC=CCN1C(=O)COc2cc(F)c(-c3ccc(C(F)(F)F)n(C)c3=O)cc21 [Compound 2-12] | 5

same assay, conditions: 100 g of the active ingredient per 10 ares, evaluated on the 14th day after treatment

Row | Compound | Herbicidal effects Ch
53 | CC(C)Oc1cc(-c2ccc(C(F)(F)F)n(C)c2=O)c(Cl)cc1Cl [1-29] | 5
54 | CCCCOC(=O)COc1cc(-c2ccc(C(F)(F)F)n(C)c2=O)c(F)cc1Cl [1-148] | 5

system: pale smartweed (Po); assay: as above; type: in vivo; design: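 grade of growth control; 5 = at least 90%; 4 = 70 to 90%; 3 = 50 to 70%; 2 = 30 to 50%; 1 = 10 to 30%; 0 = under 10%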; details: 100 g active ingredient per 10 ares, evaluated 14th day after treatment
Experimental: as §4, §5

Row | Compound | Herbicidal effects Po
55 | CC=CCN1C(=O)COc2cc(F)c(-c3ccc(C(F)(F)F)n(C)c3=O)cc21 [Compound 2-12] | 5

same assay, conditions: 100 g of the active ingredient per 10 ares, evaluated on the 14th day after treatment

Row | Compound | Herbicidal effects Po
56 | CC(C)Oc1cc(-c2ccc(C(F)(F)F)n(C)c2=O)c(Cl)cc1Cl [1-29] | 5
57 | CCCCOC(=O)COc1cc(-c2ccc(C(F)(F)F)n(C)c2=O)c(F)cc1Cl [1-148] | 5

system: rice flatsedge (Ci); assay: as above; type: in vivo; design: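 grade of growth control; 5 = at least 90%; 4 = 70 to 90%; 3 = 50 to 70%; 2 = 30 to 50%; 1 = 10 to 30%; 0 = under 10%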; details: 100 g active ingredient per 10 ares, evaluated 14th day after treatment
Experimental: as §4, §5

Row | Compound | Herbicidal effects Ci
58 | CC=CCN1C(=O)COc2cc(F)c(-c3ccc(C(F)(F)F)n(C)c3=O)cc21 [Compound 2-12] | 5

same assay, conditions: 100 g of the active ingredient per 10 ares, evaluated on the 14th day after treatment

Row | Compound | Herbicidal effects Ci
59 | CC(C)Oc1cc(-c2ccc(C(F)(F)F)n(C)c2=O)c(Cl)cc1Cl [1-29] | 5
60 | CCCCOC(=O)COc1cc(-c2ccc(C(F)(F)F)n(C)c2=O)c(F)cc1Cl [1-148] | 5

system: slender amaranth (Am); assay: as above; type: in vivo; design: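 grade of growth control; 5 = at least 90%; 4 = 70 to 90%; 3 = 50 to 70%; 2 = 30 to 50%; 1 = 10 to 30%; 0 = under 10%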; details: 100 g active ingredient per 10 ares, evaluated 14th day after treatment
Experimental: as §4, §5

Row | Compound | Herbicidal effects Am
61 | CC=CCN1C(=O)COc2cc(F)c(-c3ccc(C(F)(F)F)n(C)c3=O)cc21 [Compound 2-12] | 5

same assay, conditions: 100 g of the active ingredient per 10 ares, evaluated on the 14th day after treatment

Row | Compound | Herbicidal effects Am
62 | CC(C)Oc1cc(-c2ccc(C(F)(F)F)n(C)c2=O)c(Cl)cc1Cl [1-29] | 5
63 | CCCCOC(=O)COc1cc(-c2ccc(C(F)(F)F)n(C)c2=O)c(F)cc1Cl [1-148] | 5
